Results taken from patent US20260294770A1, “FORMULATIONS OF NARINGENIN” (DEBUT BIOTECHNOLOGY, INC., priority 2023, published 2026).
“Also recorded” adds a separate entry of the source.

Columns and labels:
[1] = Solubility of naringenin in various solvents; type: physicochemical
Description: The invention recognizes that the solvent used for preparing naringenin compositions should be any solvent acceptable to be used in cosmetic formulations. In certain embodiments of the invention, naringenin is dissolved in a solvent selected from a group consisting of: dimethyl isosorbide, ethoxydiglycol, isopropyl lauryl sarcosinate, pentylene glycol, propanediol, 1,2-hexanediol, and/or butylene glycol. In certain preferred embodiments, naringenin is dissolved in dimethyl isosorbide. In certain embodiments, naringenin is dissolved in isopropyl lauryl sarcosinate. In certain embodiments, naringenin is dissolved in ethoxydiglycol. In certain embodiments, the solvent is a glycol. In certain embodiments, the glycol is selected from a group consisting of pentylene glycol, butylene glycol, and any combination thereof. In certain embodiments, the solvent is selected from a group consisting of: phenylpropanol, 1,2-hexanediol, propanediol, isopentyldiol, 1,2 heptanediol, and any combination thereof.
Table 1 provides the solubility data for naringenin in several solvents. […]

[2] = DPPH antioxidant activity assay (organic medium); type: biochemical; conditions: for % Radical Inhibition: organic medium
Source text: The 2,2-diphenyl-1-picrylhydrazyl (DPPH) antioxidant assay is designed to evaluate the antioxidant activity of compositions comprising naringenin in an organic medium.
2,2-diphenyl-1-picrylhydrazyl (DPPH) is a stable free radical used to evaluate free radical scavenging capacity of a material. In the presence of an antioxidant DPPH is reduced, resulting in the formation of a colorless solution. Reduction of absorbance at 517 nm is standardized to solvent control as an indication of DPPH scavenging.

[3] = system: LCE2B; experiment: Upregulation of gene expression and/or activity, 1% naringenin: LCE2B
Source text: In certain embodiments, administration of a composition comprising naringenin leads to up-regulation of LCE5A, KRT77, ALOXE3, KRT1, HPGD, MUCL1, CASP14, WFDC12, KRT10, DNASE1L2, IL37, SERPINB12, HAL, UPK1A, CALML5, LCE2B, and/or MIR205. In certain embodiments, administration of a composition comprising naringenin leads to down-regulation of CCL11, CSF2, IL23A, IL11, BMP6, IL13RA2, C2CD4A, NR4A2, C2CD4B, FGF2, FARP4, GDF15, THBS1, HSPA1A, PTGS2, and/or DKK1. Tables 10 and 11 provide data for upregulation and downregulation respectively of certain genes after administration of compositions comprising 1% naringenin.
Late cornified envelope 2B (LCE2B) plays a role in the formation of precursors of the cornified envelope of the stratum corneum. It also leads to improved formation of outer skin protective barrier. In certain embodiments, the administration of composition comprising naringenin results in upregulation of LCE2B, which has a role in enhancing the outer skin protective barrier. In certain embodiments, the administration of composition comprising naringenin results in at least about 5 to about 20-fold upregulation of expression and/or activity of LCE2B. In certain embodiments, the administration of composition comprising naringenin results in at least about five (5) fold upregulation of expression and/or activity of LCE2B.

[4] = target: T1, human neutrophil elastase (Homo sapiens, UniProt P08246); experiment: Elastase enzyme inhibition; type: biochemical
T1 sequence (P08246 30-267): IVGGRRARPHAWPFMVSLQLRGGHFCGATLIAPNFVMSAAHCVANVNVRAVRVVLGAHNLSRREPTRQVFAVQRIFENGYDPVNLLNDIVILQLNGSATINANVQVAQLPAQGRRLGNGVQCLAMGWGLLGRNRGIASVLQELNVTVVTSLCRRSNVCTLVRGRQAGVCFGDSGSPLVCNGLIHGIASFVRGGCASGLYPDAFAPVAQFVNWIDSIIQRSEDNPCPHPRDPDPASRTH
Description: The assay was conducted to evaluate the elastase enzyme inhibition activity of compositions comprising naringenin.
Neutrophil infiltration and neutrophil elastase are both increased in the skin in response to UV stress. […] Therefore, inhibition of this enzyme, particularly in combination with antioxidant activity, is effective in delaying wrinkle development and aiding in maintaining skin integrity. This assay is measures release of 4-nitroaniline from an Me-Suc-Ala-Ala-Pro-Val-pNA by human neutrophil elastase and can be quantified at 405 nm by comparing to solvent control.

[5] = system: psoriasis models; conditions: cited from earlier work
[6] = system: IL-6; experiment: IL-6 concentration in stimulated (stressed) normal human epidermal keratinocytes (ELISA); type: cell-based; conditions: for IL-6 concentration: LPS + Poly:IC stressed NHEK, stimulated control 1124.6
Source text: Normal Human Epidermal Keratinocytes (NHEK) were stressed with a cocktail of lipopolysaccharide (LPS) and Polyinosinic-polycytidylic acid sodium salt (Poly:IC), external aggressors capable of inducing an inflammatory response. Stressed cells were subsequently treated with test articles and reduction in inflammatory markers was measuring by ELISA. Tables 19 and 20, provided below, discloses data for TNFα and IL-6 concentrations, respectively, in stressed normal human epidermal keratinocytes.

O=C1C[C@@H](c2ccc(O)cc2)Oc2cc(O)cc(O)c21 [naringenin, (2S)-5,7-Dihydroxy-2-(4-hydroxyphenyl)-2,3-dihydro-4H-1-benzopyran-4-one]
Solubility (in words) ([1]; in Helianthus Annuus (Sunflower) Seed Oil / sunflower oil): insoluble in Helianthus Annuus (Sunflower) Seed Oil; also recorded: not soluble in sunflower oil | Solubility (in words) ([1]; in water): poorly soluble or insoluble in water | Naringenin Solubility ([1]; solvent: 1,2 heptanediol): 2.50 % w/w | Naringenin Solubility ([1]; solvent: 1,2 hexanediol): 2.50 % w/w | Naringenin Solubility ([1]; solvent: 1,2 propanediol): 0.00 % w/w | Naringenin Solubility ([1]; solvent: 3-methyl-1,3-butanediol): 0.00 % w/w | Naringenin Solubility ([1]; solvent: Butylene glycol): 2.50 % w/w | Naringenin Solubility ([1]; solvent: C9-12 alkane): 0.00 % w/w | Naringenin Solubility ([1]; solvent: C15-19 alkane): 0.00 % w/w | Naringenin Solubility ([1]; solvent: Capric/caprylic triglyceride): 0.00 % w/w | Naringenin Solubility ([1]; solvent: Di(propylene glycol) dibenzoate): 0.00 % w/w | Naringenin Solubility ([1]; solvent: Dimethyl isosorbide): 15.00 % w/w | Naringenin Solubility ([1]; solvent: Ethoxydiglycol): 20.00 % w/w | Naringenin Solubility ([1]; solvent: Isoamyl laurate): 0.00 % w/w | Naringenin Solubility ([1]; solvent: Isopentyldiol): 2.50 % w/w | Naringenin Solubility ([1]; solvent: Isopropyl lauryol sarcosinate): 10.00 % w/w | Naringenin Solubility ([1]; solvent: Isopropyl myristate): 0.00 % w/w | Naringenin Solubility ([1]; solvent: Neopentyl glycol diethylhexanoate): 0.00 % w/w | Naringenin Solubility ([1]; solvent: Oleyl alcohol): 0.00 % w/w | Naringenin Solubility ([1]; solvent: Pentylene glycol): 2.50 % w/w | Naringenin Solubility ([1]; solvent: Phenylpropanol): 5.00 % w/w | Naringenin Solubility ([1]; solvent: Propanediol): 2.50 % w/w | Naringenin Solubility ([1]; solvent: Squalene): 0.00 % w/w | Naringenin Solubility ([1]; solvent: Tri C12-C13 alkyl citrate): 0.00 % w/w | Naringenin Solubility ([1]; solvent: Tributyl citrate): 0.00 % w/w | Naringenin Solubility ([1]; solvent: Tributyl-O-acetylcitrate): 0.00 % w/w | Naringenin Solubility ([1]; solvent: Triethyl O-acetylcitrate): 0.00 % w/w | Naringenin Solubility ([1]; solvent: Triethyl citrate): 0.00 % w/w | Naringenin Solubility ([1]; solvent: Triisostearin): 0.00 % w/w | Naringenin Solubility ([1]; solvent: jojoba oil): 0.00 % w/w | Naringenin Solubility ([1]; solvent: sunflower oil): 0.00 % w/w | % Radical Inhibition ([2]; 0.50 % w/w naringenin): 18.82% | % Radical Inhibition ([2]; 1.00 % w/w naringenin): 28.44% | % Radical Inhibition ([2]; 2.00 % w/w naringenin): 46.82% | Lowest concentration with antioxidant activity ([2]; organic solvent systems): ≤ 0.2 % w/w | Fold-increase in expression and/or activity of LCE2B [3]: ~9 fold | Lowest concentration inhibiting elastase [4]: ≤ 0.02 % w/w | inhibition at 0.02 % strength ([4]; 0.02 % w/w naringenin): 1.05% | inhibition at 0.1 % strength ([4]; 0.10 % w/w naringenin): 15.5% | inhibition at 0.5 % strength ([4]; 0.50 % w/w naringenin): 84% | IC50 elastase inhibition ([4]; role: inhibitor, substrate Me-Suc-Ala-Ala-Pro-Val-pNA, calculated): 0.159 % w/w | Skin barrier restoration [5]: restoration of skin barrier | IL-6 concentration ([6]; 0.0001% naringenin, p-value 0.0001): 395.8 pg/mL | IL-6 concentration ([6]; 0.0045% naringenin, p-value 0.0029): 42.0 pg/mL | IL-6 concentration ([6]; 0.007% naringenin, p-value 0.0030): 50.0 pg/mL | IL-6 concentration ([6]; 0.01% naringenin, p-value 0.0035): 76.6 pg/mL | inhibition at 0.0001 % ([6]; Homo sapiens, NHEK, 0.0001% naringenin, vs stimulated control, p-value 0.0001, read-out: IL-6 % Reduction vs Treated): 64.8% | inhibition at 0.0045 % ([6]; Homo sapiens, NHEK, 0.0045% naringenin, vs stimulated control, p-value 0.0029, read-out: IL-6 % Reduction vs Treated): 96.3% | inhibition at 0.007 % ([6]; Homo sapiens, NHEK, 0.007% naringenin, vs stimulated control, p-value 0.0030, read-out: IL-6 % Reduction vs Treated): 95.6% | inhibition at 0.01 % ([6]; Homo sapiens, NHEK, 0.01% naringenin, vs stimulated control, p-value 0.0035, read-out: IL-6 % Reduction vs Treated): 93.2% | Reduction of IL-6 (in words) ([6]; stressed keratinocytes): to non-stressed levels
